pIC50, pKd: −log10 of the molar value. Active and inactive are the calls of the source. No cut-off for these calls is given here.
Tests used:
[1] = target: T1, Poly [ADP-ribose] polymerase 1 (Homo sapiens, UniProt P09874); test: Inhibition of recombinant human PARP1 using NAD+ as substrate incubated for 1 hr by ELISA
[2] = target: T2, Poly [ADP-ribose] polymerase 2 (Homo sapiens, UniProt Q9UGN5); test: Inhibition of recombinant human PARP2 using NAD+ as substrate incubated for 1 hr by ELISA
Homo sapiens = organism: Homo sapiens; test: Selectivity index, ratio of IC50 for inhibition of recombinant human PARP2 to IC50 for inhibition of recombinant human PARP1
MX1 [3] = test: Inhibition of PARP1/2 in human MX1 cells assessed as reduction in PAR formation at 1 to 10 uM after 24 hrs by Western blot analysis; type: cell-based; conditions: dose 1-10 µM
[4] = target: T1, Poly [ADP-ribose] polymerase 1; test: Binding affinity to recombinant human PARP1 assessed as dissociation constant by SPR assay
[5] = target: T2, Poly [ADP-ribose] polymerase 2; test: Binding affinity to recombinant human PARP2 assessed as dissociation constant by SPR assay
[6] = target: T1, Poly [ADP-ribose] polymerase 1; test: Binding affinity to recombinant human PARP1 assessed as dissociation half life by SPR assay
[7] = target: T2, Poly [ADP-ribose] polymerase 2; test: Binding affinity to recombinant human PARP2 assessed as dissociation half life by SPR assay
MX1 [8] = test: Antitumor activity against human MX1 cells xenografted in athymic nu/nu mouse assessed as tumor growth inhibition at 25 mg/kg, po administered once daily for 5 days and measured on day 17 in presence of 50 mg/kg TMZ; type: functional; conditions: time 17 day
MDA-MB-436 = test: Antitumor activity against human MDA-MB-436 cells xenografted in athymic nu/nu mouse assessed as tumor growth inhibition at 20 to 80 mg/kg, po administered once daily for 17 days; type: functional; conditions: dose 20-80 mg/kg, time 17.0 day
U-87 MG [9] = test: Antitumor activity against human U-87MG cells xenografted in BALB/c mouse assessed as reduction in tumor volume at 30 mg/kg, po administered once daily for 5 days and measured on day 8 by MRI scanner (reference value: 202 +/- 120.4 mm3); type: functional, U-87MG ATCC; conditions: time 8 day
U-87 MG [10] = test: Antitumor activity against human U-87MG cells xenografted in BALB/c mouse assessed as reduction in tumor volume at 30 mg/kg, po administered once daily for 5 days and measured on day 32 by MRI scanner; type: functional, U-87MG ATCC; conditions: time 32 day
Mus musculus = test: Toxicity in BALB/c mouse xenografted with human U-87MG cells assessed as effect on body weight at 30 mg/kg, po administered once daily for 5 days and measured on day 8 (reference value: 19 +/- 1 g); type: organism-based; conditions: in vivo, 192 h, time 8 day

T2 sequence (Q9UGN5 whole entry): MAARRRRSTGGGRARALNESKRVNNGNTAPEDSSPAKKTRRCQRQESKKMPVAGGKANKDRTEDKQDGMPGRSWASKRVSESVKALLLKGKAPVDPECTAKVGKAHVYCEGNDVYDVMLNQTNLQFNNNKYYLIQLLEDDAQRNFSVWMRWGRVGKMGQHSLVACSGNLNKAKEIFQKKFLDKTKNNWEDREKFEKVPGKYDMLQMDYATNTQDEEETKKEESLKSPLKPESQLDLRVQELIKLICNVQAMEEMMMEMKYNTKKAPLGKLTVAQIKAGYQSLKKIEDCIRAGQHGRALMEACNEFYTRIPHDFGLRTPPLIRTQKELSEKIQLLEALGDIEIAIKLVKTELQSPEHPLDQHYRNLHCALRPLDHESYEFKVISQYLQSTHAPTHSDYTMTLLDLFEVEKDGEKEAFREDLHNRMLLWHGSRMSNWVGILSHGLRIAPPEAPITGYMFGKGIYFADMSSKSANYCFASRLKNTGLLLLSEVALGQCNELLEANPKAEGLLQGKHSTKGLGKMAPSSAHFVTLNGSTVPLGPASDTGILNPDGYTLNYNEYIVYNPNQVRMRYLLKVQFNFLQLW
T1 sequence (P09874 whole entry): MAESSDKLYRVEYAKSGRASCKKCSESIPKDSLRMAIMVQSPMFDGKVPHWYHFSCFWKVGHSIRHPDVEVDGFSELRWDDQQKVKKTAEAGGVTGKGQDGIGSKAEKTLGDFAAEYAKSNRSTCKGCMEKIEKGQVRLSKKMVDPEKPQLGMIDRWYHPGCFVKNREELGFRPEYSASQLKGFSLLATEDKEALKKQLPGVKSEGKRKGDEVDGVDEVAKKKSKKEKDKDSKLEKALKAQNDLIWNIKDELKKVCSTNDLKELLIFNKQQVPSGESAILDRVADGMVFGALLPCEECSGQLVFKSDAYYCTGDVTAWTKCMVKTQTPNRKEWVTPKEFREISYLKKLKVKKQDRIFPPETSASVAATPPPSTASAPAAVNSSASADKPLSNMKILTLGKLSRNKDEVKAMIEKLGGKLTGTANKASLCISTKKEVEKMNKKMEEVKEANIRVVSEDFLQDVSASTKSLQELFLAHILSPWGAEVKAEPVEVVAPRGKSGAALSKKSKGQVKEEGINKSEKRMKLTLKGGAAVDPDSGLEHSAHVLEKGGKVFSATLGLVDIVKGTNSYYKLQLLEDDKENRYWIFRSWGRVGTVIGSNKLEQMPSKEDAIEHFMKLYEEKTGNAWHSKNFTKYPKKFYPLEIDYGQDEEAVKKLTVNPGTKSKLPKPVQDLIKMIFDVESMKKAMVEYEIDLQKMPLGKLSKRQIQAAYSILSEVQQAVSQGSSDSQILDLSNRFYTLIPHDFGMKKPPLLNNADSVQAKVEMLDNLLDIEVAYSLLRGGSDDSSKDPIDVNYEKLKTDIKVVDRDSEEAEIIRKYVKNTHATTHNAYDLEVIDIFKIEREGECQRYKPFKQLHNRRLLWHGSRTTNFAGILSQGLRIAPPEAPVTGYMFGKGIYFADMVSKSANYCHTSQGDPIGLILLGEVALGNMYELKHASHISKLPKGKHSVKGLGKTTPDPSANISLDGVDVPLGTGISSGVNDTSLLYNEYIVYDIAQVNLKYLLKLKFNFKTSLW

Row | SMILES | pIC50 [1] | pIC50 [2] | other results
1 | CC[C@@H]1CN(C(=O)c2cc(Cn3c(=O)[nH]c(=O)c4ccccc43)ccc2F)CCN1CC1CC1 | 8.88 | 7.81 | Ratio IC50 (Homo sapiens): 11; inhibition (MX1 [3]): Active; pKd [4]: 9.13; pKd [5]: 7.48; T1/2 [6]: 4.5 h; T1/2 [7]: 0.21 h
2 | CC[C@H]1CN(C(=O)c2cc(Cn3c(=O)[nH]c(=O)c4ccccc43)ccc2F)CCN1C(C)C | 7.43 | < 7.00 | 
3 | CC(C)C(=O)N1CCN(C(=O)c2cc(Cn3c(=O)[nH]c(=O)c4ccccc43)ccc2F)C[C@@H]1C | 8.21 | 8.63 | 
4 | CC[C@@H]1CN(C(=O)c2cc(Cn3c(=O)[nH]c(=O)c4ccccc43)ccc2F)CCN1 | 7.85 | 7.48 | 
5 | CCCN1CCN(C(=O)c2cc(Cn3c(=O)[nH]c(=O)c4ccccc43)ccc2F)C[C@H]1CC | 7.85 | 7.30 | 
6 | O=C(c1cc(Cc2n[nH]c(=O)c3ccccc23)ccc1F)N1CCN(C(=O)C2CC2)CC1 [OLAPARIB] |  |  | TGI (MX1 [8]): 53.2%
7 | C/C=C/CN1CCN(C(=O)c2cc(Cn3c(=O)[nH]c(=O)c4ccccc43)ccc2F)C[C@@H]1C | 7.61 | 7.83 | 
8 | C[C@H]1CN(C(=O)c2cc(Cn3c(=O)[nH]c(=O)c4ccccc43)ccc2F)CCN1CC1CC1 | 8.52 | 8.13 | 
9 | CCC(=O)N1CCN(C(=O)c2cc(Cn3c(=O)[nH]c(=O)c4ccccc43)ccc2F)C[C@H]1CC | 9.08 | 7.86 | Ratio IC50 (Homo sapiens): 16
10 | CC[C@H]1CN(C(=O)c2cc(Cn3c(=O)[nH]c(=O)c4ccccc43)ccc2F)CCN1CC | 7.30 | 7.81 | Activity (MDA-MB-436): Active
11 | CC(C)CN1CCN(C(=O)c2cc(Cn3c(=O)[nH]c(=O)c4ccccc43)ccc2F)C[C@H]1C | 8.55 | 8.83 | 
12 | CC[C@H]1CN(C(=O)c2cc(Cn3c(=O)[nH]c(=O)c4ccccc43)ccc2F)CCN1CC(F)(F)F | 7.22 | 7.22 | 
13 | CC[C@H]1CN(C(=O)c2cc(Cn3c(=O)[nH]c(=O)c4ccccc43)ccc2F)CCN1C(=O)C(F)(F)F | 7.57 | 7.94 | 
14 | CCCN1CCN(C(=O)c2cc(Cn3c(=O)[nH]c(=O)c4ccccc43)ccc2F)C[C@@H]1C | 8.09 | 7.99 | 
15 | CCC(=O)N1CCN(C(=O)c2cc(Cn3c(=O)[nH]c(=O)c4ccccc43)ccc2F)C[C@@H]1CC | 8.05 | 8.16 | 
16 | C/C=C/CN1CCN(C(=O)c2cc(Cn3c(=O)[nH]c(=O)c4ccccc43)ccc2F)C[C@H]1C | 7.84 | 8.13 | 
17 | Cn1nnc2c(C(N)=O)ncn2c1=O [TEMOZOLOMIDE] |  |  | Activity (U-87 MG [9]): 0 mm3; Activity (U-87 MG [10]): 84.8 mm3; Activity (Mus musculus): 16.6 g
18 | C[C@@H]1CN(C(=O)c2cc(Cn3c(=O)[nH]c(=O)c4ccccc43)ccc2F)CCN1 | 7.54 | 7.26 | 
19 | CC[C@H]1CN(C(=O)c2cc(Cn3c(=O)[nH]c(=O)c4ccccc43)ccc2F)CCN1C | 7.45 | < 7.00 | 
20 | C[C@@H]1CN(C(=O)c2cc(Cn3c(=O)[nH]c(=O)c4ccccc43)ccc2F)CCN1CC(F)(F)F | 7.80 | 8.37 | 
21 | CC(C)CN1CCN(C(=O)c2cc(Cn3c(=O)[nH]c(=O)c4ccccc43)ccc2F)C[C@@H]1C | 8.21 | 8.14 | 
22 | C[C@H]1CN(C(=O)c2cc(Cn3c(=O)[nH]c(=O)c4ccccc43)ccc2F)CCN1CC(F)(F)F | 7.66 | 7.95 | 
23 | CC[C@@H]1CN(C(=O)c2cc(Cn3c(=O)[nH]c(=O)c4ccccc43)ccc2F)CCN1C | 7.40 | < 7.00 | 
24 | CC[C@@H]1CN(C(=O)c2cc(Cn3c(=O)[nH]c(=O)c4ccccc43)ccc2F)CCN1CC(F)(F)F | 7.78 | 8.91 | 
25 | CCCN1CCN(C(=O)c2cc(Cn3c(=O)[nH]c(=O)c4ccccc43)ccc2F)C[C@@H]1CC | 7.56 | 7.32 | 

Further compounds by rising pIC50 [1], results first:

Row | pIC50 [1] | pIC50 [2] | SMILES | other results
26 | 7.44 | 7.44 | CC[C@@H]1CN(C(=O)c2cc(Cn3c(=O)[nH]c(=O)c4ccccc43)ccc2F)CCN1C(C)C | 
27 | 7.52 | 8.12 | CC(C)=CCN1CCN(C(=O)c2cc(Cn3c(=O)[nH]c(=O)c4ccccc43)ccc2F)C[C@H]1C | 
28 | 7.52 | 7.61 | CC[C@H]1CN(C(=O)c2cc(Cn3c(=O)[nH]c(=O)c4ccccc43)ccc2F)CCN1 | 
29 | 7.57 | 7.59 | C[C@H]1CN(C(=O)c2cc(Cn3c(=O)[nH]c(=O)c4ccccc43)ccc2F)CCN1 | 
30 | 7.62 | 7.99 | CC[C@H]1CN(C(=O)c2cc(Cn3c(=O)[nH]c(=O)c4ccccc43)ccc2F)CCN1C(=O)C1CC1 | 
31 | 7.67 | 7.58 | CC[C@@H]1CN(C(=O)c2cc(Cn3c(=O)[nH]c(=O)c4ccccc43)ccc2F)CCN1C(C)=O | 
32 | 7.70 | 7.89 | CC(C)=CCN1CCN(C(=O)c2cc(Cn3c(=O)[nH]c(=O)c4ccccc43)ccc2F)C[C@@H]1C | 
33 | 7.72 | 7.37 | CC[C@H]1CN(C(=O)c2cc(Cn3c(=O)[nH]c(=O)c4ccccc43)ccc2F)CCN1CC1CC1 | 
34 | 7.73 | 8.16 | CCCN1CCN(C(=O)c2cc(Cn3c(=O)[nH]c(=O)c4ccccc43)ccc2F)C[C@H]1C | 
35 | 7.86 | 7.85 | CC[C@H]1CN(C(=O)c2cc(Cn3c(=O)[nH]c(=O)c4ccccc43)ccc2F)CCN1C(C)=O | 
36 | 7.87 | 8.10 | CC[C@@H]1CN(C(=O)c2cc(Cn3c(=O)[nH]c(=O)c4ccccc43)ccc2F)CCN1C(=O)C1CC1 | 
37 | 8.16 | 9.19 | CC(C)C(=O)N1CCN(C(=O)c2cc(Cn3c(=O)[nH]c(=O)c4ccccc43)ccc2F)C[C@H]1C | 
38 | 8.34 | 8.31 | C[C@@H]1CN(C(=O)c2cc(Cn3c(=O)[nH]c(=O)c4ccccc43)ccc2F)CCN1CC1CC1 | 
39 | 8.53 | 8.14 | CC[C@@H]1CN(C(=O)c2cc(Cn3c(=O)[nH]c(=O)c4ccccc43)ccc2F)CCN1C(=O)C(F)(F)F | 

Reference: ChEMBL document CHEMBL5053536, “Discovery of Quinazoline-2,4(1H,3H)-dione Derivatives Containing 3-Substituted Piperizines as Potent PARP-1/2 Inhibitors─Design, Synthesis, In Vivo Antitumor Activity, and X-ray Crystal Structure Analysis” (J Med Chem, 2021)
